Data published in ChEMBL document CHEMBL1155752, “Isolation and structure of korolkoside, a bis-iridoid glucoside from Lonicera korolkovii” (J Nat Prod, 2001).

How the values were obtained:
[1] = system: Mus musculus; test: Acute toxicity in ddY mouse at 38 mg/mouse, ip assessed as death after 12 hrs; format: organism-based; conditions: in vivo
[2] = system: Mus musculus; test: Acute toxicity in ddY mouse at 2 mg/mouse, ip assessed as death after 12 hrs; format: organism-based; conditions: in vivo

C=C[C@H]1[C@H](O[C@@H]2O[C@H](CO)[C@@H](O)[C@H](O)[C@H]2O)OC=C(C(=O)OC)[C@H]1CC(OC)OC [SECOLOGANIN DIMETHYL ACETAL] was tested, and the Activity [1] was “Non-toxic”.
For C=C[C@H]1[C@H](O[C@@H]2O[C@H](CO)[C@@H](O)[C@H](O)[C@H]2O)OC=C(C(=O)OC)[C@H]1C[C@@H]1OC[C@H]2O[C@@H](O[C@@H]3OC=C(C(=O)OC)[C@@H](CC(OC)OC)[C@H]3C=C)[C@H](O)[C@@H](O)[C@@H]2O1 [KOROLKOSIDE], the Activity [2] was “Non-toxic”.
